Assay results from the supplement of paper PMC11208160.

Assay: recombinant barcode read abundance after kanamycin selection (control-corrected) (log10(CPM+1)); higher = more efficient recombination; sequences stand for … in AGTGCAGAGAAAATCGGCCAGTTTTCTCTGCCTGCAGTCCGCATGCCGT…AGATTTATGCAGCGGACTGCCTTTCTCCCAAAGTGATAAACCGGACAGTATCATGGACCGGTTTTCCCGGTAATCCGTATTTGCAAGGTTGGTTTCACT; site = the 11-nt target
Method: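 Pooled E. coli target-specificity screen for the IS621 bridge recombinase. Each library plasmid pairs an 11-nt target (CT core) with a bridge RNA whose target-binding loop (9-nt LTG + 4-nt RTG) is reprogrammed; the rest of the 177-nt WT IS621 bridge RNA scaffold is fixed. The plasmid is co-electroporated with a WT donor plasmid; recombinase is induced with 0.1 mM IPTG and recombinants are selected on kanamycin. Recombinant barcodes are sequenced, converted to CPM, averaged over two biological replicates and corrected by the unselected control CPM. Molecule = full bridge RNA written as DNA: LTG = specificity nt 1-9, RTG = reverse complement of specificity nt 8-11, in the WT scaffold.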
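Note: IS621 recombinase and bridge RNA in Escherichia coli cells.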

Sequence | recombinant barcode read abundance (log10)
AATGGATCTTGGGTTCTAACCTGTTGCCT (site AATGGATCTAG) | 1.01
AATGGATCTTGGGTTCTAACCTGTTGCCT (site AATGTATCTAG) | 0.0683
AATGGGTCTTGGGTTCTAACCTGTTGCCT (site AATGGGACTAG) | 0.0612
AATGGGTCTTGGGTTCTAACCTGTTGCCT (site AATGGGCCTAG) | 0.132
AATGGGTCTTGGGTTCTAACCTGTTGCCT (site AATGGGGCTAG) | 0.04
AATGGGTCTTGGGTTCTAACCTGTTGCCT (site AATGGGTCTAG) | 1.3
AATTAAGCTTGGGTTCTAACCTGTTGCCT (site AATTAAGCTAG) | 1.28
AATTAAGCTTGGGTTCTAACCTGTTGCCT (site AATTCAGCTAG) | 0.159
AATTAAGCTTGGGTTCTAACCTGTTGCCT (site AATTGAGCTAG) | 0.088
AATTAAGCTTGGGTTCTAACCTGTTGCCT (site AATTTAGCTAG) | 0.223
AATTCACCTTGGGTTCTAACCTGTTGCCT (site AATTCACCTAG) | 0.454
AATTCACCTTGGGTTCTAACCTGTTGCCT (site CATTCACCTAG) | 0.0863
AATTCACCTTGGGTTCTAACCTGTTGCCT (site GATTCACCTAG) | 0.0262
AATTCACCTTGGGTTCTAACCTGTTGCCT (site TATTCACCTAG) | 0.129
AATTCAGCTTGGGTTCTAACCTGTTGCCT (site AATTAAGCTAG) | 0.0713
AATTCAGCTTGGGTTCTAACCTGTTGCCT (site AATTCAGCTAG) | 0.26
AATTCAGCTTGGGTTCTAACCTGTTGCCT (site AATTGAGCTAG) | 0.164
AATTCAGCTTGGGTTCTAACCTGTTGCCT (site AATTTAGCTAG) | 0.0408
AATTCGGCTTGGGTTCTAACCTGTTGCCT (site AATTCGGCTAG) | 0.305
AATTCGGCTTGGGTTCTAACCTGTTGCCT (site ACTGCGGCTAG) | 0.407
AATTGTCCTTGGGTTCTAACCTGTTGCAT (site AATTGTCCTAA) | 0.296
AATTGTCCTTGGGTTCTAACCTGTTGCAT (site AATTGTCCTAC) | 0.102
AATTGTCCTTGGGTTCTAACCTGTTGCAT (site AATTGTCCTAG) | 0.0432
AATTGTCCTTGGGTTCTAACCTGTTGCAT (site AATTGTCCTAT) | 0.249
AATTGTCCTTGGGTTCTAACCTGTTGCCT (site AATTGTCCTAA) | 0.411

Sequence | recombinant barcode read abundance (log10)
AATTGTCCTTGGGTTCTAACCTGTTGCCT (site AATTGTCCTAC) | 0.0374
AATTGTCCTTGGGTTCTAACCTGTTGCCT (site AATTGTCCTAG) | 0.407
AATTGTCCTTGGGTTCTAACCTGTTGCCT (site AATTGTCCTAT) | 0.0177
AATTTGACTTGGGTTCTAACCTGTTGCCT (site AAATTGACTAG) | 0.218
AATTTGACTTGGGTTCTAACCTGTTGCCT (site AACTTGACTAG) | 0.0252
AATTTGACTTGGGTTCTAACCTGTTGCCT (site AAGTTGACTAG) | 0.115
AATTTGACTTGGGTTCTAACCTGTTGCCT (site AATTTGACTAG) | 0.576
ACAAGAGCTTGGGTTCTAACCTGTTGCCT (site ACAAGAGCTAG) | 1.07
ACAAGAGCTTGGGTTCTAACCTGTTGCCT (site ACCAGAGCTAG) | 0.266
ACAAGAGCTTGGGTTCTAACCTGTTGCCT (site ACGAGAGCTAG) | 0.0837
ACAAGAGCTTGGGTTCTAACCTGTTGCCT (site ACTAGAGCTAG) | 0.133
ACAATACCTTGGGTTCTAACCTGTTGCCG (site ACAATACCTCG) | 0.408
ACAATACCTTGGGTTCTAACCTGTTGCCG (site ACAATAGCTAG) | 0.51
ACAATCTCTTGGGTTCTAACCTGTTGCTC (site ACAATCTCTGA) | 1.22
ACAATCTCTTGGGTTCTAACCTGTTGCTC (site CACCAGACTTG) | 0.066
ACACACCCTTGGGTTCTAACCTGTTGCGG (site ACACACCCTCC) | 2.53
ACACACCCTTGGGTTCTAACCTGTTGCGG (site ACGCACGCTCC) | 0.0353
ACACGAGCTTGGGTTCTAACCTGTTGCAG (site ACACGAGCTCT) | 1.3
ACACGAGCTTGGGTTCTAACCTGTTGCAG (site TGCGATACTAA) | 0.326
ACACGGACTTGGGTTCTAACCTGTTGCTA (site ACACGGACTTA) | 1.38
ACACGGACTTGGGTTCTAACCTGTTGCTA (site GTGGTACCTAT) | 0.0282
ACACTCCCTTGGGTTCTAACCTGTTGCCT (site AAGCTCCCTAG) | 0.415
ACACTCCCTTGGGTTCTAACCTGTTGCCT (site ACACTCCCTAG) | 0.294
ACACTCCCTTGGGTTCTAACCTGTTGCTG (site ACACACTCTCA) | 0.104
ACACTCCCTTGGGTTCTAACCTGTTGCTG (site ACACTCCCTCA) | 2.14

Sequence | recombinant barcode read abundance (log10)
ACACTGTCTTGGGTTCTAACCTGTTGCGG (site ACAATGTCTCC) | 0.0253
ACACTGTCTTGGGTTCTAACCTGTTGCGG (site ACACTGTCTCC) | 1.49
ACACTGTCTTGGGTTCTAACCTGTTGCGG (site ACAGTGTCTCC) | 0.379
ACACTGTCTTGGGTTCTAACCTGTTGCGG (site ACATTGTCTCC) | 0.429
ACAGAGGCTTGGGTTCTAACCTGTTGCCG (site ACAGAGGCTCG) | 1.12
ACAGAGGCTTGGGTTCTAACCTGTTGCCG (site ACTCAGGCTCG) | 0.155
ACAGCCGCTTGGGTTCTAACCTGTTGCCT (site ACAGACGCTAG) | 0.221
ACAGCCGCTTGGGTTCTAACCTGTTGCCT (site ACAGCCGCTAG) | 1.46
ACAGCCGCTTGGGTTCTAACCTGTTGCCT (site ACAGGCGCTAG) | 0.108
ACAGCCGCTTGGGTTCTAACCTGTTGCCT (site ACAGTCGCTAG) | 0.118
ACAGCTTCTTGGGTTCTAACCTGTTGCCT (site ACAGCTACTAG) | 0.0838
ACAGCTTCTTGGGTTCTAACCTGTTGCCT (site ACAGCTTCTAG) | 1.53
ACAGGCGCTTGGGTTCTAACCTGTTGCCT (site ACAGACGCTAG) | 0.858
ACAGGCGCTTGGGTTCTAACCTGTTGCCT (site ACAGCCGCTAG) | 0.617
ACAGGCGCTTGGGTTCTAACCTGTTGCCT (site ACAGGCGCTAG) | 0.673
ACAGGCGCTTGGGTTCTAACCTGTTGCCT (site ACAGTCGCTAG) | 0.0488
ACAGGTGCTTGGGTTCTAACCTGTTGCCT (site ACAGGTGCTAG) | 1.98
ACAGGTGCTTGGGTTCTAACCTGTTGCCT (site ACATGTGCTAG) | 0.0807
ACAGTAGCTTGGGTTCTAACCTGTTGCTG (site ACAATAGCTCA) | 0.181
ACAGTAGCTTGGGTTCTAACCTGTTGCTG (site ACACTAGCTCA) | 0.0586
ACAGTAGCTTGGGTTCTAACCTGTTGCTG (site ACAGTAGCTCA) | 1.87
ACAGTAGCTTGGGTTCTAACCTGTTGCTG (site ACATTAGCTCA) | 0.0402
ACAGTCGCTTGGGTTCTAACCTGTTGCCT (site ACAGACGCTAG) | 0.229
